{
  "source": "paper PMC10178848",
  "about": "“Modulating fast skeletal muscle contraction protects skeletal muscle in animal models of Duchenne muscular dystrophy” (The Journal of Clinical Investigation, 2023)",
  "key": {"[1]": {"biological_target": "T1, smooth muscle myosin S1 isolated from chicken gizzard (Gallus gallus, UniProt P10587)", "T1 construct": "purchased Cytoskeleton Inc; host or cells: chicken gizzard", "test": "Actin-activated myosin S1 ATPase, smooth muscle", "type": "biochemical", "protocol": "(§1) Smooth muscle chicken gizzard S1 was purchased from Cytoskeleton Inc. Other myosin S1 was prepared via published protocols ([21]). Briefly, fresh rabbit psoas and frozen porcine ventricular muscle (Pel-freez) were extracted in 0.3 M KCl, 0.15 M KH2PO4, 1 mM EGTA, 1 mM ATP, 1 mM DTT, pH 6.5, at 4°C. Full-length myosin was purified from each extract via low-ionic precipitations with final precipitation into PM12 buffer (12 mM PIPES, pH 7.0, 2 mM MgCl2). Purified myosin was resuspended in PIPES/EDTA buffer (20 mM PIPES, pH 6.8, 10 mM EDTA, 1 mM DTT) and reacted with 0.2 mg/mL α-chymotrypsin for 30 minutes at room temperature. Proteolysis was quenched with PMSF (final concentration 100 μM), and the reaction was centrifuged for 45 minutes at 230,000g. S1 fragment in the supernatant was dialyzed into PM12 with 0.02% sodium azide and clarified by centrifugation. Sucrose was added to 10% w/v and flash-frozen in liquid N2 and stored at –80°C. […]\n(§2) A lactate dehydrogenase/pyruvate kinase enzyme-coupled system ([62]) was used to monitor ATP hydrolysis rates in various muscle preparations. […] A multidrop cassette (Thermo Fisher Scientific) dispensed 10 μL of the coupled enzyme system, calcium, and myofibrils to 10 μL ATP, NADH and PEP to initiate the reaction prior to reading on a plate reader (Envision, Perkin Elmer) for 10 minutes per plate at room temperature. […]"}, "PIM2": {"biological_target": "T2, PIM2 (Homo sapiens, UniProt Q9P1W9)", "T2 construct": "purchased Eurofins DiscoverX (KINOMEscan; SAFETYscan E/IC50 ELECT)", "test": "KINOMEscan scanEDGE", "type": "binding", "settings": "20 uM"}, "PKAC-alpha": {"biological_target": "T3, PKAC-alpha (Homo sapiens, UniProt P17612)", "T3 construct": "purchased Eurofins DiscoverX (KINOMEscan; SAFETYscan E/IC50 ELECT)", "test": "KINOMEscan scanEDGE", "type": "binding", "settings": "20 uM"}, "Human Soleus myofibrils": {"test_system": "Human Soleus myofibrils", "test": "Myofibril ATPase, human soleus", "type": "biochemical", "protocol": "Myofibrils were prepared from various animals and tissues: rabbit psoas muscle and porcine cardiac muscle were purchased from Pel-Freez Biologicals. Human bicep and soleus muscle were purchased from BioIVT, and neonatal rat muscle was obtained in house. All myofibrils were prepared using published methods ([21]).\nA lactate dehydrogenase/pyruvate kinase enzyme-coupled system ([62]) was used to monitor ATP hydrolysis rates in various muscle preparations. Rabbit psoas myofibrils were used for high-throughput screening at pCa 6.25 at 0.25 mg/mL. A multidrop cassette (Thermo Fisher Scientific) dispensed 10 μL of the coupled enzyme system, calcium, and myofibrils to 10 μL ATP, NADH and PEP to initiate the reaction prior to reading on a plate reader (Envision, Perkin Elmer) for 10 minutes per plate at room temperature. Hits were reconfirmed, and secondary assays were used to evaluate selectivity, including bovine cardiac myofibrils (pCa 5.86) and enzyme coupled hits with a hexokinase screen (Sigma-Aldrich)."}, "GR": {"biological_target": "T4, GR (Homo sapiens, UniProt P04150)", "T4 construct": "purchased Eurofins DiscoverX (KINOMEscan; SAFETYscan E/IC50 ELECT)", "test": "SAFETYscan NHR Protein Interaction", "type": "cell-based", "set-up": "dose or concentration left out as unconfirmed", "protocol": "The specificity of EDG-5506 for fast skeletal myosin over other, unrelated proteins was confirmed using two off-target binding and activity screens. […] A second off-target panel (SAFETYscan E/IC50 ELECT, Eurofins DiscoverX) tested in vitro enzyme activity against 78 proteins, including GPCR, ion channel, kinases, nuclear hormone receptors, and transporters. In all assays, the IC50 of EDG-5506 was more than 10 μM (Supplemental Data File 1)."}, "IKK-beta": {"biological_target": "T5, IKK-beta (Homo sapiens, UniProt O14920)", "T5 construct": "purchased Eurofins DiscoverX (KINOMEscan; SAFETYscan E/IC50 ELECT)", "test": "KINOMEscan scanEDGE", "type": "binding", "settings": "20 uM"}, "FAK": {"biological_target": "T6, FAK (Homo sapiens, UniProt Q05397)", "T6 construct": "purchased Eurofins DiscoverX (KINOMEscan; SAFETYscan E/IC50 ELECT)", "test": "KINOMEscan scanEDGE", "type": "binding", "settings": "20 uM"}, "PLK1": {"biological_target": "T7, PLK1 (Homo sapiens, UniProt P53350)", "T7 construct": "purchased Eurofins DiscoverX (KINOMEscan; SAFETYscan E/IC50 ELECT)", "test": "KINOMEscan scanEDGE", "type": "binding", "settings": "20 uM"}, "p38-alpha": {"biological_target": "T8, p38-alpha (Homo sapiens, UniProt Q16539)", "T8 construct": "purchased Eurofins DiscoverX (KINOMEscan; SAFETYscan E/IC50 ELECT)", "test": "KINOMEscan scanEDGE", "type": "binding", "settings": "20 uM"}, "PLK4": {"biological_target": "T9, PLK4 (Homo sapiens, UniProt O00444)", "T9 construct": "purchased Eurofins DiscoverX (KINOMEscan; SAFETYscan E/IC50 ELECT)", "test": "KINOMEscan scanEDGE", "type": "binding", "settings": "20 uM"}, "LKB1": {"biological_target": "T10, LKB1 (Homo sapiens, UniProt Q15831)", "T10 construct": "purchased Eurofins DiscoverX (KINOMEscan; SAFETYscan E/IC50 ELECT)", "test": "KINOMEscan scanEDGE", "type": "binding", "settings": "20 uM"}, "BRAF(V600E)": {"biological_target": "T11, BRAF(V600E) (Homo sapiens, UniProt P15056, V600E)", "T11 construct": "purchased Eurofins DiscoverX (KINOMEscan; SAFETYscan E/IC50 ELECT)", "T11 sequence (P15056 whole entry V600E)": "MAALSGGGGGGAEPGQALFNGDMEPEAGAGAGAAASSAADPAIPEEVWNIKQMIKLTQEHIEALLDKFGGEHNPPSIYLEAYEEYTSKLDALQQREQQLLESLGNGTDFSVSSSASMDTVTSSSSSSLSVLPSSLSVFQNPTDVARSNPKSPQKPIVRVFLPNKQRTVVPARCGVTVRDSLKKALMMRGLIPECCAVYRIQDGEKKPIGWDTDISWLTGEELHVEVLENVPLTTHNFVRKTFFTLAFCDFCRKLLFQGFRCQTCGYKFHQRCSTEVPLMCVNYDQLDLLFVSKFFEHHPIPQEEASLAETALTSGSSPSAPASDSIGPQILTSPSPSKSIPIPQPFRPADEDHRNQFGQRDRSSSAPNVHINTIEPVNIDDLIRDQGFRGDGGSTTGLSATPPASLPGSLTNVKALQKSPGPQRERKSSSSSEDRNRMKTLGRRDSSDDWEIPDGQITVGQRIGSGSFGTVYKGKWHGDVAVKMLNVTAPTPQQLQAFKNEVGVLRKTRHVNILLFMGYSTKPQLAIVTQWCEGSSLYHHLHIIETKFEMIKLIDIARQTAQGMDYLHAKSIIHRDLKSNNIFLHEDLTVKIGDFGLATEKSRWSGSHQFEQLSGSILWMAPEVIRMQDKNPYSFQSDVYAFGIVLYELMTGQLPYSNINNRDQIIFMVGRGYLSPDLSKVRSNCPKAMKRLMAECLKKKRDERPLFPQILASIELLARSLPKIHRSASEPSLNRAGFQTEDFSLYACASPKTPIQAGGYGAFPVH", "test": "KINOMEscan scanEDGE", "type": "binding", "settings": "20 uM"}, "CDK7": {"biological_target": "T12, CDK7 (Homo sapiens, UniProt P50613)", "T12 construct": "purchased Eurofins DiscoverX (KINOMEscan; SAFETYscan E/IC50 ELECT)", "test": "KINOMEscan scanEDGE", "type": "binding", "settings": "20 uM"}, "ERBB2": {"biological_target": "T13, ERBB2 (Homo sapiens, UniProt P04626)", "T13 construct": "purchased Eurofins DiscoverX (KINOMEscan; SAFETYscan E/IC50 ELECT)", "T13 sequence (P04626 23-1255)": "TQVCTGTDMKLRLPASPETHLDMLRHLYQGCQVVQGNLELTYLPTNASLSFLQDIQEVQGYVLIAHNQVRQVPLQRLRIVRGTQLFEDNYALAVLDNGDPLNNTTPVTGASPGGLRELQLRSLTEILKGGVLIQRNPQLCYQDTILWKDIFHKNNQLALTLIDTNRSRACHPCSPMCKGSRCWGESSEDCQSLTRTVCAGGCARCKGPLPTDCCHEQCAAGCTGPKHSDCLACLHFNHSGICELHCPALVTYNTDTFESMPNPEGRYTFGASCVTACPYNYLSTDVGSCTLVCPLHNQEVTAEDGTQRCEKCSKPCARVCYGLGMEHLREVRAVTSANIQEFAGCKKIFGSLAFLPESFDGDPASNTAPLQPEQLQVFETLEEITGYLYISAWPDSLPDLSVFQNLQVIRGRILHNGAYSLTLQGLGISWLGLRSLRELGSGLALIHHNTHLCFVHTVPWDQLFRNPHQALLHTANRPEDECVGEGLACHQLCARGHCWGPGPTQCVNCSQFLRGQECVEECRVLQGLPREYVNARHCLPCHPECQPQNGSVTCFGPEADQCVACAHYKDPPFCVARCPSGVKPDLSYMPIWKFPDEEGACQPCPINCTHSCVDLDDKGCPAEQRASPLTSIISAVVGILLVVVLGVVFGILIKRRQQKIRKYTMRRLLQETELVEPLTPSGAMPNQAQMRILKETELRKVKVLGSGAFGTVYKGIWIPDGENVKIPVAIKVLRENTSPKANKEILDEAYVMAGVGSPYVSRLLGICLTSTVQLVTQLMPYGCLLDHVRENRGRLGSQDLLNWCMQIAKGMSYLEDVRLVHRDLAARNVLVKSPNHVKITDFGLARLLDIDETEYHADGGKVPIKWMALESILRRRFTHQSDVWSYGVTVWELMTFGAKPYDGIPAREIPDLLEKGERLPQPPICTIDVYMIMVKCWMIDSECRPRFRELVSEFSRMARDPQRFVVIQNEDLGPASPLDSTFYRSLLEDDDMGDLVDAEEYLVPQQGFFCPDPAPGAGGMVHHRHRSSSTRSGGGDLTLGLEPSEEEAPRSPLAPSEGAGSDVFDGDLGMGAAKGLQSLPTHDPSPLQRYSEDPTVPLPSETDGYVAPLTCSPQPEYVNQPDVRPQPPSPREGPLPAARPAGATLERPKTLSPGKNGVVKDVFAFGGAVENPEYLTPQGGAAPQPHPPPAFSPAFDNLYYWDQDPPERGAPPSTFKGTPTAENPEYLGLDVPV", "test": "KINOMEscan scanEDGE", "type": "binding", "settings": "20 uM"}, "EGFR": {"biological_target": "T14, EGFR (Homo sapiens, UniProt P00533)", "T14 construct": "purchased Eurofins DiscoverX (KINOMEscan; SAFETYscan E/IC50 ELECT)", "T14 sequence (P00533 25-1210)": "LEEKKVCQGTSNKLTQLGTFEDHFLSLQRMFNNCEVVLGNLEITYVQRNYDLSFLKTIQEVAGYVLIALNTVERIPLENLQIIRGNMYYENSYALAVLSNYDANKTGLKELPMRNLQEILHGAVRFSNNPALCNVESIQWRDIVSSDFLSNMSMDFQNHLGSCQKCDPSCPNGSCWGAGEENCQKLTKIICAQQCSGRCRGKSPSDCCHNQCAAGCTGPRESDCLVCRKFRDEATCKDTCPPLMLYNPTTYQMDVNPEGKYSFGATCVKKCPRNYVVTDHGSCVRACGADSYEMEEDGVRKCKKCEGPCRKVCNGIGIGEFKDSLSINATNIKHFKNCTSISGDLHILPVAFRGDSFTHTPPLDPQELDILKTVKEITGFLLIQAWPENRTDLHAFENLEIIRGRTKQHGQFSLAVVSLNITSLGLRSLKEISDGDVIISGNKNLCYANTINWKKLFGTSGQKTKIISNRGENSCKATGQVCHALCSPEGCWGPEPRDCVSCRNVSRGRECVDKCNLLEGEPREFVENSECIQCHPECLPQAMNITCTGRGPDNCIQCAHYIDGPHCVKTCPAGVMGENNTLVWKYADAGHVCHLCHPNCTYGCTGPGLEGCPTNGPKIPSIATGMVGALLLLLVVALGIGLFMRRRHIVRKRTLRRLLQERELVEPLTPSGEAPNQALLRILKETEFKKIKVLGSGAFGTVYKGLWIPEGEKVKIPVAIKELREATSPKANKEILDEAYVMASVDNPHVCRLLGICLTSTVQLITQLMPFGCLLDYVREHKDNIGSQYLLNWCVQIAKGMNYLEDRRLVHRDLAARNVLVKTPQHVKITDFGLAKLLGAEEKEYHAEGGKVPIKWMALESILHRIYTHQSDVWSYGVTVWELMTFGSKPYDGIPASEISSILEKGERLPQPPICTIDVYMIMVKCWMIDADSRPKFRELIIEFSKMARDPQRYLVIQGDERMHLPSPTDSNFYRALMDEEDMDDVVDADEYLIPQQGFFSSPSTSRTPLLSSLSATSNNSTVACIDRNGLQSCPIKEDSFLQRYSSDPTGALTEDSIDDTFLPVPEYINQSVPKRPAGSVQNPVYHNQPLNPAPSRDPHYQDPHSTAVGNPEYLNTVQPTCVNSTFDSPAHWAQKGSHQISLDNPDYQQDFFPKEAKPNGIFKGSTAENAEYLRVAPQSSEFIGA", "test": "KINOMEscan scanEDGE", "type": "binding", "settings": "20 uM"}, "ZAP70": {"biological_target": "T15, ZAP70 (Homo sapiens, UniProt P43403)", "T15 construct": "purchased Eurofins DiscoverX (KINOMEscan; SAFETYscan E/IC50 ELECT)", "T15 sequence (P43403 whole entry)": "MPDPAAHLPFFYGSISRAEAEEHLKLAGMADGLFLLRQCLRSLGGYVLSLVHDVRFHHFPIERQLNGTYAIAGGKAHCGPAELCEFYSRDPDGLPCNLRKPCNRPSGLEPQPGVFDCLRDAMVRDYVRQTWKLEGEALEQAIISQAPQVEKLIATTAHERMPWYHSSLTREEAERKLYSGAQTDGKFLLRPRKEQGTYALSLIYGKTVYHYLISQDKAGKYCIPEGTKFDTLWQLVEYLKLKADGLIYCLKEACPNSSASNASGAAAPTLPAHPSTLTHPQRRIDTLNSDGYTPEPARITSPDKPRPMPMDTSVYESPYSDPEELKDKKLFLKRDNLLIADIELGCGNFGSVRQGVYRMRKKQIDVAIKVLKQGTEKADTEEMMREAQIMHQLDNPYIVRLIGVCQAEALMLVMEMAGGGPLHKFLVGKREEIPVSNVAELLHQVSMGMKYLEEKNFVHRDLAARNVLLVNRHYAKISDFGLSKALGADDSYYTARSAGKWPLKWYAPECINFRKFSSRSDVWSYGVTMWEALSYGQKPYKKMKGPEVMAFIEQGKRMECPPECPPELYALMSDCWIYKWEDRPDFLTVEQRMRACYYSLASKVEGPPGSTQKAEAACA", "test": "KINOMEscan scanEDGE", "type": "binding", "settings": "20 uM"}, "[2]": {"biological_target": "T16, porcine ventricular cardiac S1 (Sus scrofa, UniProt P79293)", "T16 construct": "tissue Pel-freez; host or cells: frozen porcine ventricular muscle; myosin extracted and digested with alpha-chymotrypsin", "T16 sequence (P79293 1-808 limits assumed)": "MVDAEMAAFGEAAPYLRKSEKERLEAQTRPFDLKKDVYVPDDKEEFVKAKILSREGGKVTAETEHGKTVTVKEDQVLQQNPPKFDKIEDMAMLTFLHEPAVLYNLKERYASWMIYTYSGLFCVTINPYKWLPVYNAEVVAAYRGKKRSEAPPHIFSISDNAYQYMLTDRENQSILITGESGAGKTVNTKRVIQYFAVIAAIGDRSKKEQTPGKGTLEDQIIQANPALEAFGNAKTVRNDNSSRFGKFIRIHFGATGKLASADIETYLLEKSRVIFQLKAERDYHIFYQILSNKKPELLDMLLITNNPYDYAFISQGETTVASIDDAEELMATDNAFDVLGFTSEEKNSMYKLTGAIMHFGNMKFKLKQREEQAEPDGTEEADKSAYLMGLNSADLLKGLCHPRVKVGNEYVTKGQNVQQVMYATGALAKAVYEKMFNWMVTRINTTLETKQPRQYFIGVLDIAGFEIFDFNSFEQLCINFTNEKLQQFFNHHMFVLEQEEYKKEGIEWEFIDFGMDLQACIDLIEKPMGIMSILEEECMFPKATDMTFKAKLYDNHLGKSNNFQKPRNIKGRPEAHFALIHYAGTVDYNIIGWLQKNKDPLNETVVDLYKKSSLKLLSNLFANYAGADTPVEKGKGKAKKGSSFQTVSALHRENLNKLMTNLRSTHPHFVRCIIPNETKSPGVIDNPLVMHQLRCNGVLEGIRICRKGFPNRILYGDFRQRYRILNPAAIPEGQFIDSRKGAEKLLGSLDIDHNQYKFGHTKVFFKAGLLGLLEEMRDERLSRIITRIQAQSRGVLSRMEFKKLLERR", "test": "Actin-activated myosin S1 ATPase, cardiac", "type": "biochemical", "protocol": "as §1, §2"}, "JNK3": {"biological_target": "T17, JNK3 (Homo sapiens, UniProt P53779)", "T17 construct": "purchased Eurofins DiscoverX (KINOMEscan; SAFETYscan E/IC50 ELECT)", "T17 sequence (P53779 whole entry)": "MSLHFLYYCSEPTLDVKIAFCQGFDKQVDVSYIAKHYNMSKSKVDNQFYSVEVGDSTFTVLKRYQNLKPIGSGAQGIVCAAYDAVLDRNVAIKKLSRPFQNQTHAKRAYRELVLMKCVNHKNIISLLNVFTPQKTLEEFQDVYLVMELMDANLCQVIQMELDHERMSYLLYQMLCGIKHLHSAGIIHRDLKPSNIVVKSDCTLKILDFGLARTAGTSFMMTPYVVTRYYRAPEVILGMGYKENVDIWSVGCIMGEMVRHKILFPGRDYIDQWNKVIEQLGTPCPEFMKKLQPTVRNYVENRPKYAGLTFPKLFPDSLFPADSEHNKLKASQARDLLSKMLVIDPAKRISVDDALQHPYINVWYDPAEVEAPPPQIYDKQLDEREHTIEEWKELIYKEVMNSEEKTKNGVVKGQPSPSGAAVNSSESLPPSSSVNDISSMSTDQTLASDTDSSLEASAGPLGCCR", "test": "KINOMEscan scanEDGE", "type": "binding", "settings": "20 uM"}, "WT or mdx mice": {"test_system": "WT or mdx mice", "test": "Rotarod endurance", "type": "in vivo, mouse", "settings": "single doses up to 10 mg/kg, 4 hours after oral administration", "protocol": "Prior to in vivo assessments, mice were dosed PO after a 2-hour fast with 10 mL/Kg suspensions. Grip strength and rotarod assessments were performed masked, 4 hours after dosing using published protocols ([66], [67]). Grip strength was performed with a Columbus Instruments Rodent Force Meter. Forepaw strength represented the average of 5 trials with 30-second rest periods, normalized by BW. Rotarod endurance was performed with a Columbus Instruments RotaMax. Mice were placed on the device drum at 1 rpm, which accelerated 1 rpm every 3 seconds to 12 rpm and a maximal time of 500 seconds. This was repeated 3 times with a 3-minute rest and total time reported. Voluntary wheel running performance was assessed with a customized system. Timestamped RPMs were measured 24 hours per day by infrared sensors, and a custom software calculated distance. Whole-body EBD was visualized after intravenous administration ([35]). EBD in PBS at 10 mg/mL was sterile filtered, and 50 μL/10 g BW was injected via tail vein. After 24 hours, animals were sacrificed, skin was removed and fixed in 4% formalin for 24 hours, and photographed using a Leica/Lumix camera."}},
  "data": [
    {"smiles": "O=c1ccc(-c2cnc(OCC(F)(F)F)nc2)nn1Cc1cncc(F)c1", "note": "[EDG-5506]", "values": [
      {"measurement": "IC50", "setting": "[1]", "result": "> 100", "unit": "µM"},
      {"measurement": "binding, % of control", "setting": "PIM2", "result": "100 % of control"},
      {"measurement": "binding, % of control", "setting": "PKAC-alpha", "result": "100 % of control"},
      {"measurement": "Maximum Inhibition (%)", "setting": "Human Soleus myofibrils; human soleus myofibrils", "result": 79, "unit": "%"},
      {"measurement": "IC50", "setting": "Human Soleus myofibrils; human soleus, 66% Type I, 33% IIa, IIx, at pCa 50", "result": 1.1, "unit": "µM"},
      {"measurement": "Emax", "setting": "GR; read-out: Max Response (%) (Agonist)", "result": 0.41, "unit": "%"},
      {"measurement": "Max inhibition (antagonist mode)", "setting": "GR; read-out: Max Response (%) (Antagonist)", "result": 33.6, "unit": "%"},
      {"measurement": "binding, % of control", "setting": "IKK-beta", "result": "94 % of control"},
      {"measurement": "binding, % of control", "setting": "FAK", "result": "100 % of control"},
      {"measurement": "binding, % of control", "setting": "PLK1", "result": "100 % of control"},
      {"measurement": "binding, % of control", "setting": "p38-alpha", "result": "100 % of control"},
      {"measurement": "binding, % of control", "setting": "PLK4", "result": "90 % of control"},
      {"measurement": "binding, % of control", "setting": "LKB1", "result": "86 % of control"},
      {"measurement": "binding, % of control", "setting": "BRAF(V600E)", "result": "93 % of control"},
      {"measurement": "binding, % of control", "setting": "CDK7", "result": "83 % of control"},
      {"measurement": "binding, % of control", "setting": "ERBB2", "result": "76 % of control"},
      {"measurement": "binding, % of control", "setting": "EGFR", "result": "100 % of control"},
      {"measurement": "binding, % of control", "setting": "ZAP70", "result": "85 % of control"},
      {"measurement": "IC50", "setting": "[2]", "result": "> 100", "unit": "µM"},
      {"measurement": "binding, % of control", "setting": "JNK3", "result": "81 % of control"},
      {"measurement": "rotarod endurance", "setting": "WT or mdx mice", "result": "no effect"}
    ]}
  ]
}
